“And” between values parts separate entries of the source, which are not always exact repeats. Identical values can stand only once.
Assays:
H460 lung cancer cells = assay: RT-PCR of AREG RNA in H460 lung cancer cells after chemotherapy; type: cell-based; conditions: 48 hour treatment
Protocol: FIG. 5 illustrates analysis of AREG and beta actin RNA expression in H460 lung cancer cells with/without either a 48 hour CPT11 treatment or 5-Fu treatment. RNA levels were analyzed following 35 cycle of PCR to determine relative differences in expression between treated and untreated samples.
(§1) Cells in a log phase of growth were seeded into T75 flask at ˜20% confluence and incubated overnight to allow adherence to the plate. […] Chemotherapy was substituted with saline in control flasks. After different time exposure to chemotherapy the cells were harvested, washed 3 times in PBS and total RNA was isolated using the RNA TAT-60 reagent according to the manufacturer instructions.
(§2) Reverse transcription was performed with 2.5 μg of RNA using a High Capacity cDNA Archive kit (Applied Biosystem) according to the instruction of the manufacturer.
(§3) Semi quantitative RT-PCR was performed using a PTC 225 Gradient Cycler (MJ Research Incorporated. The PCR mixture, in a final volume of 25 μL, contains 12.5 μL of 2× Biomix (Bioline, UK), 2 μL of primers (10 μmol/L), 1 μL of cDNA and 9.5 μL of dH2O). PCR conditions were initial denaturation step of 95 C for 10 minutes, followed by 35 cycles of 95° C. for 30 sec for denaturation; as annealing step 55° C. for 30 sec; and extension at 72° C. for 90 sec, with a final extension of 72° C. for 10 minutes. […]

[1] = system: MDA-MB231 breast carcinoma cell line; assay: RT-PCR of AREG mRNA in MDA-MB231 cells after chemotherapy; type: cell-based, human; conditions: IC50 dose, 48 hours
Protocol: (§4) FIG. 6 illustrates AREG upregulation following chemotherapeutic challenge in A) HT29, B) HCT116 and C) MDA-MB231 cells. Cells were treated with/without chemotherapy for 48 hours. RT-PCR was performed with 1 μg of total RNA using primer pairs specific for the human AREG gene or GAPDH. The PCR products were separated on 1.5% agarose gel electrophoresis and visualized by ethidium bromide staining.
For Example 2, Total RNA was isolated from cells following the RNA STAT-60 manufacturer's protocol (Biogenesis, Poole, U.K.). RT-PCR was performed with 1 μg of total cell RNA using a Promega ImProm-II™ Reverse Transcription System (Promega, Southhampton, UK). PCR was performed using primer pairs specific for human AREG (Forward 5′-[…]-3′(SEQ ID No:19), Reverse 5′-[…]-3′ (SEQ ID No:20)), human HB-EGF (Forward 5′-[…]-3′(SEQ ID No:21), Reverse 5′-[…]-3′(SEQ ID No:22)), human GAPDH as a control (Forward 5′[…]-3′(SEQ ID No:23), Reverse 5′ […]-3′(SEQ ID NO:24)) and human Beta-actin as a control (Forward 5′-[…]-3′(SEQ ID No:25), Reverse 5′-[…]-3′(SEQ ID No:26)).
The PCR products were separated on 1.5% agarose gel and visualized by ethidium bromide staining.

RKO +/+ = assay: Semi quantitative RT-PCR of AREG RNA in RKO cells after chemotherapy; type: cell-based, human; conditions: 48 h after treatment, 7.5 μM
Protocol: FIG. 1A illustrates analysis of AREG and beta actin RNA expression in RKO +/+ with/without either a 48 hour CPT11 treatment or 5-Fu treatment. RNA levels were analyzed following 35 cycle of PCR to determine relative differences in expression between treated and untreated samples;
as §1, §2, §3

[2] = system: HCT116+/+ cells (In Vivo); assay: Microarray analysis of EGF-family mRNA in HCT116 xenograft tumours after chemotherapy; design: species or system human; conditions: for EGF (Epidermal Growth factor) fold change, microarray: drug treated against untreated control
Protocol: 6-8 week old female SCID mice were implanted with 2×10^6 HCT116+/+ human colorectal adenocarcinoma cells into each flank. HCT116 cells in a log phase of growth were harvested, washed in PBS and resuspended in HBSS. They were mixed with equal volumes of matrigel to give a final concentration of 5×10^6 cells/ml. Mice were randomly separated into treatment groups on day 5 after implantation and treated with different doses of chemotherapy. […] All drugs were administered through a bolus injection. Animals were sacrificed at various time points and tumours were removed for analysis
Approximately 10 μg total RNA was isolated from tumour cells and was used as the starting material for preparation of probes. The microarray analysis was carried using an Affymetrix U133 plus 2.0 GeneChip®. Probes were prepared as per the manufacturers recommendations.
After RNA extraction, samples were reverse transcribed into cDNA which was then purified on a column prior to labelling. The probes were then amplified and labelled using Oligo(dT)-primed in vitro transcription generating high-yield, biotinylated targets from the 3′-end. […] For the next stage the fragmented cRNA was hybridised to the array for 16 hours at 45° C. Following this the array was washed and stained with streptavidin-phycoerythrin (SAPE) using a fluidics station and scanned using a GeneChip® Scanner 3000. Stained images were then analysed.
Initially the data was scaled using the Affymetrix® GCOS (Genechip® Operating System) software, to assess quality metrics. The data was then normalized against a control sample. After normalisation the data was filtered removing all genes where the noise level obscured signal and were fold change was […] 2-fold. Finally a confidence filter where the t-test p-value were used to filter the genes to derive lists of statistically robust data.
Each treatment type and timepoint was carried out in triplicate and statistics and filtering were applied to the whole data set from each condition.
A xenograft study was set up to examine the genetic response to 2 different chemotherapeutic drugs 24 and 48 hours after treatment. Each mouse was implanted with equal volumes of HCT116 cells and each condition was performed in triplicate.
RNA isolated from tumours in each of the 12 mice was subjected to microarray analysis to measure mRNA expression levels. Fold change values for drug treated against untreated control is presented.

HCT116 = assay: RT-PCR of AREG RNA in HCT116 cells after chemotherapy; type: cell-based, human; conditions: 48 h after treatment, 7.5 μM
Protocol: FIG. 1B illustrates analysis of AREG and beta actin RNA expression in HCT116 +/+ with/without a 48 hour CPT11 treatment. RNA levels were analyzed following 35 cycles of PCR to determine relative differences in expression between treated and untreated samples;
as §4
as §1, with “instructions. […]” for “instructions.”
Semi quantitative RT-PCR was performed using a PTC 225 Gradient Cycler (MJ Research Incorporated. The PCR mixture, in a final volume of 25 μL, contains 12.5 μL of 2× Biomix (Bioline, UK), 2 μL of primers (10 μmol/L), 1 μL of cDNA and 9.5 μL of dH2O). […]

[3] = HCT116+/+ xenograft, 70 mg/kg bolus, 24 h, vs untreated control
[4] = HCT116+/+ xenograft, 70 mg/kg bolus, 24 h, vs untreated control, 70 mg/kg
[5] = HCT116 xenograft, treated by 5-FU, time not stated

Question: How did the “AREG RNA expression (RT-PCR, 35 cycles)” value (H460 lung cancer cells) turn out when `O=c1[nH]cc(F)c(=O)[nH]1` [5-FU, 5-Fluorouracil] was run?
Answer: Its value is “enhanced expression of AREG”.

Question: And the “AREG mRNA expression (RT-PCR)” value [1]?
Answer: Its value is “up-regulation”.

Question: And the “AREG RNA expression (RT-PCR)” value (RKO +/+)?
Answer: The value was “upregulation”.

Question: And the “EGF (Epidermal Growth factor) fold change, microarray” value ([2]; HCT116+/+ xenograft, 70 mg/kg bolus, 24 h)?
Answer: The value was −2.4 fold.

Question: What about the “NRG3 fold change, microarray” value [2, 3] of the same compound?
Answer: Its value is −2.1 fold.

Question: What about the “NRG4 fold change, microarray” value [2, 3] of the same compound?
Answer: Its value is −1.1 fold.

Question: And the “HB-EGF (Heparin-Binding EGF-like growth factor) fold change, microarray” value [2, 4]?
Answer: Its value is 1.6 fold and 3.1 fold.

Question: And the “TGF alpha (Transforming Growth factor alpha) fold change, microarray” value [2, 4]?
Answer: The value was 1.3 fold and 1.8 fold.

Question: What about the “EGF (Epidermal Growth factor) fold change, microarray” value ([2]; HCT116+/+ xenograft, 70 mg/kg bolus, 48 h) of the same compound?
Answer: Its value is −3.8 fold.

Question: And the “NRG4 fold change, microarray” value ([2]; HCT116+/+ xenograft, 70 mg/kg bolus, 48 h, vs untreated control)?
Answer: The value was −1.8 fold.

Question: What about the “fold change values for AREG mRNA expression, treated against untreated controls” value ([2]; HCT116 xenograft, 70 mg/kg, after 48 hours) of the same compound?
Answer: Its value is 2.1 fold.

Question: And the “HB-EGF regulation in micro-array analysis” value [2, 5]?
Answer: Its value is “up-regulation”.

Question: What about the “TGF regulation in micro-array analysis” value [2, 5] of the same compound?
Answer: Its value is “up-regulation”.

Question: What about the “AREG RNA expression (RT-PCR)” value (HCT116) of the same compound?
Answer: Its value is “upregulation”.
